Data from ChEMBL document CHEMBL5331121, “Preferred Conformation-Guided Discovery of Potent and Orally Active HIF Prolyl Hydroxylase 2 Inhibitors for the Treatment of Anemia” (J Med Chem, 2023).
pIC50: −log10 of the molar value. Activity calls are given as the source filed them. No cut-off for these calls is given here.

Assays:
[1] = Cmax in Sprague-Dawley rat at 10 mg/kg, po measured upto 24 hrs by LC-MS/MS analysis; type: ADME, organism-based; design: time < 24 hrs, dose 10 mg/kg, route po; details: in vivo
[2] = Apparent volume of distribution in mouse at 10 mg/kg, po measured upto 24 hrs by LC-MS/MS analysis; type: ADME, organism-based; details: in vivo
[3] = Toxicity in ICR mouse assessed as behavioral abnormalities at 50 to 200 mg/kg, po administered every other day for 14 days; type: organism-based; details: in vivo, 336 h, dose 50-200 mg/kg, time 14 day
[4] = AUC(0 to t) in Sprague-Dawley rat at 10 mg/kg, po measured upto 24 hrs by LC-MS/MS analysis; type: ADME, organism-based; design: time < 24 hrs, dose 10 mg/kg, route po; details: in vivo
[5] = Toxicity in ICR mouse assessed as animal death at 800 mg/kg, po; type: organism-based; details: in vivo
[6] = Apparent volume of distribution in Sprague-Dawley rat at 1 mg/kg, iv measured upto 24 hrs by LC-MS/MS analysis; type: ADME, organism-based; details: in vivo, read-out: Vz
[7] = molecular target: Endothelial PAS domain-containing protein 1 (Homo sapiens) (UniProt Q99814); experiment: Induction of HIF-2alpha stabilization in human Hep3B cells at 20 to 50 uM by Western blotting analysis; type: cell-based; details: dose 20-50 µM
Chain of Endothelial PAS domain-containing protein 1 (Homo sapiens) (Q99814 whole entry, the tested form may be a part): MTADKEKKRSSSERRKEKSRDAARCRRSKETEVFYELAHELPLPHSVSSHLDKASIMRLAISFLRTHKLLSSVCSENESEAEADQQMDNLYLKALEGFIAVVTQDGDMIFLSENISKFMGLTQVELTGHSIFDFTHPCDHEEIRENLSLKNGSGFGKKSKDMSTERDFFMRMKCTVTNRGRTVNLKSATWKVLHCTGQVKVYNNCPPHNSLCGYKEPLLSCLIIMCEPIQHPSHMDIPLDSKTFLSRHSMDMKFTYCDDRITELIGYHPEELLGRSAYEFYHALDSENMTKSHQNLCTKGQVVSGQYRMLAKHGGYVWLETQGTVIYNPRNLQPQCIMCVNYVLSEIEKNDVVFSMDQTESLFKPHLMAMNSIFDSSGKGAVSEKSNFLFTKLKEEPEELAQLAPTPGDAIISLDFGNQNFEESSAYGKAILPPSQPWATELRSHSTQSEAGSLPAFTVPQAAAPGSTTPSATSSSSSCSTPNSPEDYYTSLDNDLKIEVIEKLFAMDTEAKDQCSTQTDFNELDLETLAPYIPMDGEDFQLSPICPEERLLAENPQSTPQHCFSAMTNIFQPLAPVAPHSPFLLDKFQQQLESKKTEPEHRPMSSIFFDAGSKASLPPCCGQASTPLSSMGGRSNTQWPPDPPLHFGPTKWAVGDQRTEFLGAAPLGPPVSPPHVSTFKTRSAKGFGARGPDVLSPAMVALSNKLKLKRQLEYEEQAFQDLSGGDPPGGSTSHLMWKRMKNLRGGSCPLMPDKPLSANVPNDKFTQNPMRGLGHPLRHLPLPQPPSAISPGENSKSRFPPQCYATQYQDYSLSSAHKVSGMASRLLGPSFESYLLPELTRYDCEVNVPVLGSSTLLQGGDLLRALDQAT

[8] = Toxicity in ICR mouse assessed as lung damage at 50 to 200 mg/kg, po administered every other day for 14 days; type: organism-based; details: in vivo, 336 h, dose 50-200 mg/kg, time 14 day
[9] = Apparent volume of distribution in mouse at 1 mg/kg, iv measured upto 24 hrs by LC-MS/MS analysis; type: ADME, organism-based; details: in vivo, read-out: Vz
[10] = Clearance in Sprague-Dawley rat at 1 mg/kg, iv measured upto 24 hrs by LC-MS/MS analysis; type: ADME, organism-based; details: in vivo
[11] = Clearance in Sprague-Dawley rat at 10 mg/kg, po measured upto 24 hrs by LC-MS/MS analysis; type: ADME, organism-based; details: in vivo
[12] = Toxicity in ICR mouse assessed as change in liver to body weight ratio at 50 to 200 mg/kg, po administered every other day for 14 days; type: organism-based; details: in vivo, 336 h, dose 50-200 mg/kg, time 14 day
[13] = AUC(0 to t) in Sprague-Dawley rat at 1 mg/kg, iv measured upto 24 hrs by LC-MS/MS analysis; type: ADME, organism-based; design: dose 1 mg/kg, time < 24 hrs, route iv; details: in vivo
[14] = Mean residence time (0 to infinity) in Sprague-Dawley rat at 10 mg/kg, po measured upto 24 hrs by LC-MS/MS analysis; type: ADME, organism-based; details: in vivo
[15] = Mean residence time (0 to infinity) in mouse at 1 mg/kg, iv measured upto 24 hrs by LC-MS/MS analysis; type: ADME, organism-based; details: in vivo
[16] = Mean residence time (0 to infinity) in Sprague-Dawley rat at 1 mg/kg, iv measured upto 24 hrs by LC-MS/MS analysis; type: ADME, organism-based; details: in vivo
[17] = Half life in mouse at 10 mg/kg, po measured upto 24 hrs by LC-MS/MS analysis; type: ADME, organism-based; details: in vivo
[18] = AUC(0 to t) in mouse at 1 mg/kg, iv measured upto 24 hrs by LC-MS/MS analysis; type: ADME, organism-based; design: time < 24 hrs, dose 1 mg/kg, route iv; details: in vivo
[19] = Toxicity in ICR mouse assessed as change in heart to body weight ratio at 50 to 200 mg/kg, po administered every other day for 14 days; type: organism-based; details: in vivo, 336 h, dose 50-200 mg/kg, time 14 day
[20] = Hepatotoxicity in ICR mouse at 50 to 200 mg/kg, po administered every other day for 14 days; type: toxicity, organism-based; details: in vivo, 336 h, dose 50-200 mg/kg, time 14 day
[21] = Half life in mouse at 1 mg/kg, iv measured upto 24 hrs by LC-MS/MS analysis; type: ADME, organism-based; details: in vivo
[22] = Nephrotoxicity in ICR mouse at 50 to 200 mg/kg, po administered every other day for 14 days; type: toxicity, organism-based; details: in vivo, 336 h, dose 50-200 mg/kg, time 14 day
[23] = Tmax in mouse at 10 mg/kg, po measured upto 24 hrs by LC-MS/MS analysis; type: ADME, organism-based; details: in vivo
[24] = AUC(0 to t) in mouse at 10 mg/kg, po measured upto 24 hrs by LC-MS/MS analysis; type: ADME, organism-based; design: dose 10 mg/kg, time < 24 hrs, route po; details: in vivo
[25] = Toxicity in ICR mouse assessed as heart damage at 50 to 200 mg/kg, po administered every other day for 14 days; type: organism-based; details: in vivo, 336 h, dose 50-200 mg/kg, time 14 day
[26] = Mean residence time (0 to infinity) in mouse at 10 mg/kg, po measured upto 24 hrs by LC-MS/MS analysis; type: ADME, organism-based; details: in vivo
[27] = Upregulation of EPO mRNA level in human Hep3B cells assessed as fold increase at 20 uM incubated for 12 hrs by RT-qPCR analysis; type: functional, Hep 3B2
[28] = Toxicity in ICR mouse assessed as liver damage at 50 to 200 mg/kg, po administered every other day for 14 days; type: organism-based; details: in vivo, 336 h, dose 50-200 mg/kg, time 14 day
[29] = Apparent volume of distribution in Sprague-Dawley rat at 10 mg/kg, po measured upto 24 hrs by LC-MS/MS analysis; type: ADME, organism-based; details: in vivo
[30] = Metabolic stability in rat liver microsomes assessed as clearance at 1 uM preincubated for 5 mins followed by NADPH addition and measured upto 60 mins by LC-MS/MS analysis; type: ADME, Microsome; details: time < 65 min, read-out: CLH
[31] = Toxicity in ICR mouse assessed as change in kidney to body weight ratio at 50 to 200 mg/kg, po administered every other day for 14 days; type: organism-based; details: in vivo, 336 h, dose 50-200 mg/kg, time 14 day
[32] = Oral bioavailability in Sprague-Dawley rat at 10 mg/kg measured upto 24 hrs by LC-MS/MS analysis; type: ADME, organism-based; details: in vivo
[33] = Tmax in Sprague-Dawley rat at 10 mg/kg, po measured upto 24 hrs by LC-MS/MS analysis; type: ADME, organism-based; details: in vivo
[34] = tested on: Mus musculus; experiment: Upregulation of reticulocytes in C57BL/6J mouse at 10 mg/kg, po administered once daily for 3 days; type: functional, organism-based; details: time 3.0 day
[35] = tested on: Erythrocyte; experiment: Upregulation of reticulocytes in C57BL/6J mouse assessed as increase in RBC at 10 to 50 mg/kg, po administered once daily for 3 days; type: functional, organism-based; details: dose 10-50 mg/kg, time 3.0 day
[36] = Toxicity in ICR mouse assessed as change in spleen to body weight ratio at 50 to 200 mg/kg, po administered every other day for 14 days; type: organism-based; details: in vivo, 336 h, dose 50-200 mg/kg, time 14 day
[37] = Clearance in mouse at 10 mg/kg, po measured upto 24 hrs by LC-MS/MS analysis; type: ADME, organism-based; details: in vivo
[38] = tested on: Hep 3B2; experiment: Upregulation of EPO mRNA level in human Hep3B cells incubated for 12 hrs by RT-qPCR analysis; type: functional, cell-based; details: dose 5-20 µM
[39] = AUC(0 to infinity) in mouse at 10 mg/kg, po measured upto 24 hrs by LC-MS/MS analysis; type: ADME, organism-based; design: dose 10 mg/kg, time < 24 hrs, route po; details: in vivo
[40] = Half life in Sprague-Dawley rat at 1 mg/kg, iv measured upto 24 hrs by LC-MS/MS analysis; type: ADME, organism-based; details: in vivo
[41] = Toxicity in ICR mouse assessed as kidney damage at 50 to 200 mg/kg, po administered every other day for 14 days; type: organism-based; details: in vivo, 336 h, dose 50-200 mg/kg, time 14 day
[42] = AUC(0 to infinity) in Sprague-Dawley rat at 1 mg/kg, iv measured upto 24 hrs by LC-MS/MS analysis; type: ADME, organism-based; design: time < 24 hrs, dose 1 mg/kg, route iv; details: in vivo
[43] = Toxicity in ICR mouse assessed as change in lungs to body weight ratio at 50 to 200 mg/kg, po administered every other day for 14 days; type: organism-based; details: in vivo, 336 h, dose 50-200 mg/kg, time 14 day
[44] = molecular target: Hypoxia-inducible factor 1-alpha (Homo sapiens) (UniProt Q16665); experiment: Induction of HIF-1alpha stabilization in human Hep3B cells at 20 to 50 uM by Western blotting analysis; type: cell-based; details: dose 20-50 µM
Chain of Hypoxia-inducible factor 1-alpha (Homo sapiens) (Q16665 whole entry, looked up): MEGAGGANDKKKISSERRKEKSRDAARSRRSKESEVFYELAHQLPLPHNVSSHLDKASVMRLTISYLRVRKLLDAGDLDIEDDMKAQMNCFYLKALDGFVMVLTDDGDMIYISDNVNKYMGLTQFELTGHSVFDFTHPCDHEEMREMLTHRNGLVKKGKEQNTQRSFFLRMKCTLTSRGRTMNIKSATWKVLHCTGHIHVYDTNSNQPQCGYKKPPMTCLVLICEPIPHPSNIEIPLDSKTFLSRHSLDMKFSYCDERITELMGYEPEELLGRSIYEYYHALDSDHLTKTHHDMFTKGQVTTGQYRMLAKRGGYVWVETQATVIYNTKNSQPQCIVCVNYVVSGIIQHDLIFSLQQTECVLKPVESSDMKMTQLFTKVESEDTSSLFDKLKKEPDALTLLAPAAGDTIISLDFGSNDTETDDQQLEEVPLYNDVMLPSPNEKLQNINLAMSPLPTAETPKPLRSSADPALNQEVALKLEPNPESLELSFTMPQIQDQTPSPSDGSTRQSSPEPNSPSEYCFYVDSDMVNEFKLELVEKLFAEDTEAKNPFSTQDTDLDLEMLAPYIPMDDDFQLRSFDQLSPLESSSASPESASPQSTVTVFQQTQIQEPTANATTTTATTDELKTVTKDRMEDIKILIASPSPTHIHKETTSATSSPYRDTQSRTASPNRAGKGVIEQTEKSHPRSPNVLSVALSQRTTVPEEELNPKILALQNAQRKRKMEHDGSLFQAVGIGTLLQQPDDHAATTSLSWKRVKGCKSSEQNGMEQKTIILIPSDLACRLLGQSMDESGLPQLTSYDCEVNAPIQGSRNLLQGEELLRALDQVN

[45] = Toxicity in ICR mouse assessed as effect on food intake at 50 to 200 mg/kg, po administered every other day for 14 days; type: organism-based; details: in vivo, 336 h, dose 50-200 mg/kg, time 14 day
[46] = Clearance in mouse at 1 mg/kg, iv measured upto 24 hrs by LC-MS/MS analysis; type: ADME, organism-based; details: in vivo
[47] = Toxicity in ICR mouse assessed as effect on body weight at 50 to 200 mg/kg, po administered every other day for 14 days; type: organism-based; details: in vivo, 336 h, dose 50-200 mg/kg, time 14 day
[48] = tested on: Hep 3B2; experiment: Cytotoxicity against human Hep3B cells incubated for 48 hrs by CCK-8 assay; type: toxicity, cell-based; details: hep 3b2, 48 h
[49] = AUC(0 to infinity) in Sprague-Dawley rat at 10 mg/kg, po measured upto 24 hrs by LC-MS/MS analysis; type: ADME, organism-based; design: dose 10 mg/kg, time < 24 hrs, route po; details: in vivo
[50] = Cmax in mouse at 10 mg/kg, po measured upto 24 hrs by LC-MS/MS analysis; type: ADME, organism-based; design: time < 24 hrs, dose 10 mg/kg, route po; details: in vivo
[51] = Oral bioavailability in mouse at 10 mg/kg measured upto 24 hrs by LC-MS/MS analysis; type: ADME, organism-based; details: in vivo
[52] = tested on: Hep 3B2; experiment: Effect on VEGFA gene expression in human Hep3B cells at 5 to 20 uM incubated for 12 hrs by RT-qPCR analysis; type: functional, cell-based; details: dose 5-20 µM
[53] = molecular target: Egl nine homolog 1 (Homo sapiens, UniProt Q9GZT9); experiment: Binding affinity to […] PHD2 (181 to 426 residues) (unknown origin) by fluorescence polarization assay
Chain of Egl nine homolog 1 (Q9GZT9 whole entry, the tested form may be a part): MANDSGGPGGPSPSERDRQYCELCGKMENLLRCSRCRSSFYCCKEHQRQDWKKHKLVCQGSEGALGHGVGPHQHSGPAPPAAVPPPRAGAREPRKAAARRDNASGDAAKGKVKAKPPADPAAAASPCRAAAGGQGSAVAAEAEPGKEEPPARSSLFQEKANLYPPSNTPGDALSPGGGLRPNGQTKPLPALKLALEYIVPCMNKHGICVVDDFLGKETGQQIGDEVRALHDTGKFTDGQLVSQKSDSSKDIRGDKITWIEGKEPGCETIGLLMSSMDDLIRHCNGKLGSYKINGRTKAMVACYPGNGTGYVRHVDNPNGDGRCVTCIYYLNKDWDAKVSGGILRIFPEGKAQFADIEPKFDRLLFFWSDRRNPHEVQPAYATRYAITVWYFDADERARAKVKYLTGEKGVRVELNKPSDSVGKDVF

[54] = AUC(0 to infinity) in mouse at 1 mg/kg, iv measured upto 24 hrs by LC-MS/MS analysis; type: ADME, organism-based; design: time < 24 hrs, dose 1 mg/kg, route iv; details: in vivo
[55] = Toxicity in ICR mouse assessed as spleen damage at 50 to 200 mg/kg, po administered every other day for 14 days; type: organism-based; details: in vivo, 336 h, dose 50-200 mg/kg, time 14 day

For `O=C(O)CNC(=O)c1ncc(C2CCN(C(=O)CNc3ccc(Cl)cc3)CC2)cc1O`, the Cmax [1] was 26100 ng/mL, the Vz [2] was 4532 mL/kg and the Activity [3] was “Non-Toxic”. The AUC(0-t) at 24 h [4] was 7120 ng·h/mL, the Activity [5] was “Non-Toxic” and the Vd [6] was 2.64 L/kg. The Activity [7] was “Active”, the Activity [8] was “Non-Toxic” and the Vd [9] was 0.345 L/kg. For the same compound, the clearance [10] was 8.05 mL/min/kg, the CL/F [11] was 23.6 mL/min/kg and the Activity [12] was “Non-Toxic”. For the same compound, the AUC(0-t) at 24 h [13] was 2060 ng·h/mL, the MRT inf [14] was 33.6 min and the MRT inf [15] was 31.8 min. The MRT inf [16] was 1.54 h, the half-life [17] was 70.2 min and the AUC(0-t) at 24 h [18] was 1380 ng·h/mL. For the same compound, the Activity [19] was “Non-Toxic”, the Activity [20] was “Non-Toxic” and the half-life [21] was 19.8 min. The Activity [22] was “Non-Toxic”, the Tmax [23] was 30 min and the AUC(0-t) at 24 h [24] was 4480 ng·h/mL. The Activity [25] was “Non-Toxic”, the MRT inf [26] was 1.67 h and the “fold change (FC)” value [27] was 11. For the same compound, the Activity [28] was “Non-Toxic”, the Vz [29] was 4692 mL/kg and the microsomal CLint at 1 µM [30] was 3.8 µL/min/mg. The Activity [31] was “Non-Toxic”, the bioavailability [32] was 33.9% and the Tmax [33] was 4.8 min. For the same compound, the Activity [34] was “Active”, the Activity [35] was “Dose-Dependent Effect” and the Activity [36] was “Non-Toxic”. The CL/F [37] was 37.4 mL/min/kg, the Activity [38] was “Dose-Dependent Effect” and the AUC(0-inf) [39] was 4490 ng·h/mL. For the same compound, the half-life [40] was 223 min, the Activity [41] was “Non-Toxic” and the AUC(0-inf) [42] was 2110 ng·h/mL. For the same compound, the Activity [43] was “Non-Toxic”, the Activity [44] was “Active” and the Activity [45] was “Non-Toxic”. For the same compound, the clearance [46] was 12 mL/min/kg, the Activity [47] was “Non-Toxic” and the Activity [48] was “Non-Toxic”. The AUC(0-inf) [49] was 7140 ng·h/mL, the Cmax [50] was 3040 ng/mL and the bioavailability [51] was 35.3%. The Activity [52] was “inactive”, the pIC50 [53] was 7.65 and the AUC(0-inf) [54] was 1390 ng·h/mL. The Activity [55] was “Non-Toxic”.
